Measurements from patent US12384770B2, “Heterocyclic compound” (Takeda Pharmaceutical Company Limited, priority 2019, dated 2025).

Molecular target: T1, HDAC6 enzyme (Homo sapiens, UniProt Q9UBN7)
T1 construct: HDAC6 enzyme prepared by transducing full length HDAC6 gene into Sf-9 insect cells; GST; purchased SignalChem; host or cells: Sf-9 insect cells
T1 sequence (Q9UBN7 1-1215): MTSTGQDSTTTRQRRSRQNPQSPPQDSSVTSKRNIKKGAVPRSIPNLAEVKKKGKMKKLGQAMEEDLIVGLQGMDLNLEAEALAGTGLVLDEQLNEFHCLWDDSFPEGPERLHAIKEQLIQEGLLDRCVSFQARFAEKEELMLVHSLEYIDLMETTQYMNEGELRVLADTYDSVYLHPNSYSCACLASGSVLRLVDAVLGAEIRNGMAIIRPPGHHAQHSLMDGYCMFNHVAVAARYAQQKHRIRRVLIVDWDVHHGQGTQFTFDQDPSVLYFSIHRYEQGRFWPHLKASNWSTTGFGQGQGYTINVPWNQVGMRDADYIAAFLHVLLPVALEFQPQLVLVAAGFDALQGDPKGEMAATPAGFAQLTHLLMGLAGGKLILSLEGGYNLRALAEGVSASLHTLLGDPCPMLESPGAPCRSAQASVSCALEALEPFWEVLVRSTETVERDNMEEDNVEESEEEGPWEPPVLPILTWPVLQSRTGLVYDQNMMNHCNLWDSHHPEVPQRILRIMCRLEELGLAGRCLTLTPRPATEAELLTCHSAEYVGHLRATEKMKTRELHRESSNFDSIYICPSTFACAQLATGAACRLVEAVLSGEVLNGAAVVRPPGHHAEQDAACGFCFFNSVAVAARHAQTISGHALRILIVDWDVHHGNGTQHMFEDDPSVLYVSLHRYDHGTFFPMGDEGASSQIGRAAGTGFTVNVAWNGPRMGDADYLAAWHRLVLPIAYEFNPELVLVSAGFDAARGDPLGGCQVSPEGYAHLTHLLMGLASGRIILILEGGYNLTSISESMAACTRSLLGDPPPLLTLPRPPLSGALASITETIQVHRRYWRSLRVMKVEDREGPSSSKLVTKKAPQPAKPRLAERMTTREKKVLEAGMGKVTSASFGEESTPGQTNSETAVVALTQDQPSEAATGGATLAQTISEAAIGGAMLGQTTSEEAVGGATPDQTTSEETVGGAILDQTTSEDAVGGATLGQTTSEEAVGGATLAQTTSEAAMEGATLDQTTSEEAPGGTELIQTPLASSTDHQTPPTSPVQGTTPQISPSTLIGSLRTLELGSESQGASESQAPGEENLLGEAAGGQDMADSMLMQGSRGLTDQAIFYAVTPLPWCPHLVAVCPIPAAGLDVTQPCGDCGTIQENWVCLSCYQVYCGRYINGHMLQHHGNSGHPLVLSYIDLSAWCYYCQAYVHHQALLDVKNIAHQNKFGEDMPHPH
Assay: HDAC6 enzyme inhibitory assay (HDAC-Glo I/II Assay kit)
Format: biochemical
Details: wells without enzyme = 100% inhibition; for inhibition at 10 µM: read-out: HDAC6 inhibitory rate (%) (10 μM)
How it was run: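 Full-length GST-purified HDAC6 from Sf-9 cells preincubated with compound 60 min at room temperature in Tris-HCl pH 7.5 buffer with MgCl2, KCl, NaCl, glutathione, Tween-20. Substrate-developer reaction 20 min, luminescence read; no-enzyme wells set as 100% inhibition.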

inhibition at 10 µM [%] | SMILES | further results
100 | O=C1c2cc(-c3nnc(C(F)F)o3)ccc2CN1[C@H](C1CC1)[C@@H](O)c1ccccn1 [Example 38, 2-[(1R,2R)-1-cyclopropyl-2-hydroxy-2-(pyridin-2-yl)ethyl]-6-[5-(difluoromethyl)-1,3,4-oxadiazol-2-yl]-2,3-dihydro-1H-isoindol-1-one] | 
100 | O=C1c2cc(-c3nnc(C(F)F)o3)ccc2CN1[C@H](c1ccc(F)nc1)[C@@H](O)c1ccc(F)cc1 (single isomer, unassigned) [Example 34, 6-[5-(difluoromethyl)-1,3,4-oxadiazol-2-yl]-2-[(1R*,2S*)-2-(4-fluorophenyl)-1-(6-fluoropyridin-3-yl)-2-hydroxyethyl]-2,3-dihydro-1H-isoindol-1-one] | 
 | O=C1c2cc(-c3nnc(C(F)F)o3)ccc2CN1[C@H](c1ccc(F)cc1)[C@@H](O)c1ccc(F)nc1 (single isomer, unassigned) [Example 132, 6-[5-(difluoromethyl)-1,3,4-oxadiazol-2-yl]-2-[(1R*,2S*)-1-(4-fluorophenyl)-2-(6-fluoropyridin-3-yl)-2-hydroxyethyl]-2,3-dihydro-1H-isoindol-1-one] | HDAC6 inhibitory rate (%) (10 μM): 99%
 | O=C1c2cc(-c3nnc(C(F)F)o3)ccc2CN1[C@H](c1ncccn1)[C@@H](O)c1ccc(F)c(F)c1 (single isomer, unassigned) [Example 95, 6-[5-(difluoromethyl)-1,3,4-oxadiazol-2-yl]-2-[(1R*,2S*)-2-(3,4-difluorophenyl)-2-hydroxy-1-(pyrimidin-2-yl)ethyl]-2,3-dihydro-1H-isoindol-1-one] | HDAC6 inhibitory rate (%) (10 μM) (10 µM): 99%
100 | O=C1c2cc(-c3nnc(C(F)F)o3)ccc2CN1[C@H](c1ccc(F)nc1)[C@@H](O)c1ccc(F)c(F)c1 (racemic) [Example 56, 6-[5-(difluoromethyl)-1,3,4-oxadiazol-2-yl]-2-[(1RS,2SR)-2-(3,4-difluorophenyl)-1-(6-fluoropyridin-3-yl)-2-hydroxyethyl]-2,3-dihydro-1H-isoindol-1-one] | 
100 | O=C1c2cc(-c3nnc(C(F)F)o3)ccc2CN1[C@H](C1CC1)[C@@H](O)c1ccc(C(F)(F)F)nc1 (single isomer, unassigned) [Example 77, 2-{(1R*,2S*)-1-cyclopropyl-2-hydroxy-2-[6-(trifluoromethyl)pyridin-3-yl]ethyl}-6-[5-(difluoromethyl)-1,3,4-oxadiazol-2-yl]-2,3-dihydro-1H-isoindol-1-one] | 
100 | O=C1c2cc(-c3nnc(C(F)F)o3)ccc2CN1[C@H](C1CC1)[C@@H](O)c1cccc(Cl)n1 (single isomer, unassigned) [Example 129, 2-[(1R*,2R*)-2-(6-chloropyridin-2-yl)-1-cyclopropyl-2-hydroxyethyl]-6-[5-(difluoromethyl)-1,3,4-oxadiazol-2-yl]-2,3-dihydro-1H-isoindol-1-one] | 
100 | O=C1c2cc(-c3nnc(C(F)F)o3)ccc2CN1[C@H](C1CC1)[C@@H](O)c1cccc(F)c1 [Example 10, 2-[(1R,2S)-1-cyclopropyl-2-(3-fluorophenyl)-2-hydroxyethyl]-6-[5-(difluoromethyl)-1,3,4-oxadiazol-2-yl]-2,3-dihydro-1H-isoindol-1-one] | 
100 | O=C1c2cc(-c3nnc(C(F)F)o3)ccc2CN1[C@H](C1CCC(F)(F)CC1)[C@@H](O)c1ccccn1 (racemic) [Example 81, 2-[(1RS,2RS)-1-(4,4-difluorocyclohexyl)-2-hydroxy-2-(pyridin-2-yl)ethyl]-6-[5-(difluoromethyl)-1,3,4-oxadiazol-2-yl]-2,3-dihydro-1H-isoindol-1-one] | 
100 | O=C1c2cc(-c3nnc(C(F)F)o3)ccc2CN1[C@H](c1cnccn1)[C@@H](O)c1ccc(F)cc1 (single isomer, unassigned) [Example 98, 6-[5-(difluoromethyl)-1,3,4-oxadiazol-2-yl]-2-[(1R*,2S*)-2-(4-fluorophenyl)-2-hydroxy-1-(pyrazin-2-yl)ethyl]-2,3-dihydro-1H-isoindol-1-one] | 
100 | O=C1c2cc(-c3nnc(C(F)F)o3)ccc2CN1[C@H](c1ccccn1)[C@@H](O)c1cccc(F)c1 (single isomer, unassigned) [Example 61, 6-[5-(difluoromethyl)-1,3,4-oxadiazol-2-yl]-2-[(1R*,2S*)-2-(3-fluorophenyl)-2-hydroxy-1-(pyridin-2-yl)ethyl]-2,3-dihydro-1H-isoindol-1-one] | 
100 | O=C1c2cc(-c3nnc(C(F)F)o3)ccc2CN1[C@H](c1ccc(F)cc1)[C@@H](O)c1ccc(C(F)(F)F)nc1 (single isomer, unassigned) [Example 54, 6-[5-(difluoromethyl)-1,3,4-oxadiazol-2-yl]-2-{(1R*,2S*)-1-(4-fluorophenyl)-2-hydroxy-2-[6-(trifluoromethyl)pyridin-3-yl]ethyl}-2,3-dihydro-1H-isoindol-1-one] | 
99 | O=C1c2cc(-c3nnc(C(F)F)o3)ccc2CN1[C@H](C1CC1)[C@H](O)c1ccc(F)cn1 [Example 150, 2-[(1R,2S)-1-cyclopropyl-2-(5-fluoropyridin-2-yl)-2-hydroxyethyl]-6-[5-(difluoromethyl)-1,3,4-oxadiazol-2-yl]-2,3-dihydro-1H-isoindol-1-one] | 
100 | O=C1c2cc(-c3nnc(C(F)F)o3)ccc2CN1[C@H](c1ncccn1)[C@@H](O)c1ccc(F)c(F)c1 (single isomer, unassigned) [Example 94, 6-[5-(difluoromethyl)-1,3,4-oxadiazol-2-yl]-2-[(1R*,2S*)-2-(3,4-difluorophenyl)-2-hydroxy-1-(pyrimidin-2-yl)ethyl]-2,3-dihydro-1H-isoindol-1-one] | 
100 | O=C1c2cc(-c3nnc(C(F)F)o3)ccc2CN1[C@H](c1cnccn1)[C@@H](O)c1ccc(Cl)cc1 (single isomer, unassigned) [Example 96, 2-[(1R*,2S*)-2-(4-chlorophenyl)-2-hydroxy-1-(pyrazin-2-yl)ethyl]-6-[5-(difluoromethyl)-1,3,4-oxadiazol-2-yl]-2,3-dihydro-1H-isoindol-1-one] | 
 | O=C1c2cc(-c3nnc(C(F)F)o3)ccc2CN1[C@H](c1ccc(F)cc1)[C@@H](O)c1ccccc1 (single isomer, unassigned) [Example 46, 6-[5-(difluoromethyl)-1,3,4-oxadiazol-2-yl]-2-[(1R*,2S*)-1-(4-fluorophenyl)-2-hydroxy-2-phenylethyl]-2,3-dihydro-1H-isoindol-1-one] | HDAC6 inhibitory rate (%) (10 μM): 100%
 | O=C1c2cc(-c3nnc(C(F)F)o3)ccc2CN1[C@H](c1ccc(F)c(F)c1)[C@@H](O)c1ccccn1 (single isomer, unassigned) [Example 51, 6-[5-(difluoromethyl)-1,3,4-oxadiazol-2-yl]-2-[(1R*,2R*)-1-(3,4-difluorophenyl)-2-hydroxy-2-(pyridin-2-yl)ethyl]-2,3-dihydro-1H-isoindol-1-one] | HDAC6 inhibitory rate (%) (10 μM): 99%
100 | CCOc1ccc([C@H](O)[C@@H](c2ccccc2)N2Cc3ccc(-c4nnc(C(F)F)o4)cc3C2=O)cn1 (racemic) [Example 44, 6-[5-(difluoromethyl)-1,3,4-oxadiazol-2-yl]-2-[(1RS,2SR)-2-(6-ethoxypyridin-3-yl)-2-hydroxy-1-phenylethyl]-2,3-dihydro-1H-isoindol-1-one] | 
101 | O=C1c2cc(-c3nnc(C(F)F)o3)ccc2CN1[C@H](c1ccccc1C(F)(F)F)[C@@H](O)c1ccccn1 (racemic) [Example 39, 6-[5-(difluoromethyl)-1,3,4-oxadiazol-2-yl]-2-{(1RS,2RS)-2-hydroxy-2-(pyridin-2-yl)-1-[2-(trifluoromethyl)phenyl]ethyl}-2,3-dihydro-1H-isoindol-1-one] | 
101 | O=C1c2cc(-c3nnc(C(F)F)o3)ccc2CN1[C@H](C1CCOCC1)[C@@H](O)c1cccc(Cl)c1 (single isomer, unassigned) [Example 70, 2-[(1R*,2S*)-2-(3-chlorophenyl)-2-hydroxy-1-(oxan-4-yl)ethyl]-6-[5-(difluoromethyl)-1,3,4-oxadiazol-2-yl]-2,3-dihydro-1H-isoindol-1-one] | 
